# Calls of active or inactive are those of the source.
# Assays:
# [1] = tested on: Streptococcus sp. 'group A'; assay: growth inhibition of control SK(-) GAS strain, dose response, counter-screen for streptokinase expression inhibitor project, luminescence, kanamycin, BacTiterGlo, confirmation (AID 1900); type: functional, organism-based
# Streptococcus = assay: Group A Streptococcus viability loss, dose response, counter-screen for streptokinase expression inhibitor project, luminescence, BacTiterGlo (AID 1915); type: functional, organism-based;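 note: potency for reduction of bacterial viability or growth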
# Streptokinase A = target: T1, Streptokinase A (Streptococcus pyogenes serotype M1, UniProt P10520); assay: S. pyogenes streptokinase expression inhibitors, potency, dose response, plasminogen activation absorbance, OD405 (AID 1914); type: functional, Streptococcus pyogenes M1 GAS;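 note: secreted streptokinase activity via plasminogen activation per viability signal from cell pellet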
# T1 sequence (P10520 whole entry): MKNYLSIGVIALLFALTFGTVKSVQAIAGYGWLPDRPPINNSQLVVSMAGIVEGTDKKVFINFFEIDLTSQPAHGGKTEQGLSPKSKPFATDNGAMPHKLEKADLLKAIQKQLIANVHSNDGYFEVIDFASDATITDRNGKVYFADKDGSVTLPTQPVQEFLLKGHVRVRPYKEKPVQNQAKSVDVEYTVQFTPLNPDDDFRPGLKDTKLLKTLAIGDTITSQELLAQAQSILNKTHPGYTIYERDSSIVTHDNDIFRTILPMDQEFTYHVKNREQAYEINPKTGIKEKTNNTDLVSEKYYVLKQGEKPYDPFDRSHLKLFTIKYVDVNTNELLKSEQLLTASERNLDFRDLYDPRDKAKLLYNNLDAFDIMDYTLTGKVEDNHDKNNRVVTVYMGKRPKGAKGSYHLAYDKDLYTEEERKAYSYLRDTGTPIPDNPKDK
# [2] = target: T2, Ubiquitin-conjugating enzyme E2 N (Homo sapiens, UniProt P61088); type: functional;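 note: Dose-response confirmation in a TR-FRET assay detecting UBC13-driven polyubiquitin chain formation, inhibition measured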
# T2 sequence (P61088 whole entry): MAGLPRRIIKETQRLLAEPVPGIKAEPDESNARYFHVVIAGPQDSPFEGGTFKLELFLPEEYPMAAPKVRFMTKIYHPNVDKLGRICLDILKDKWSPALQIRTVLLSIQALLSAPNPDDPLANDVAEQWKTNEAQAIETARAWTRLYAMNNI
# [3] = HEp-2 cell cytotoxicity, dose response, cytotoxicity control for RSV inhibitor project, HTS (AID 2410); type: functional; settings: human respiratory syncytial virus
# Cytochrome P450 3A4 = Cytochrome P450 3A4 (Homo sapiens, UniProt P08684); settings: Potency;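 note: confirmatory qHTS run detecting inhibitors and substrates of CYP3A4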
# Cytochrome P450 3A4, sequence (P08684 whole entry, the tested form may be a part): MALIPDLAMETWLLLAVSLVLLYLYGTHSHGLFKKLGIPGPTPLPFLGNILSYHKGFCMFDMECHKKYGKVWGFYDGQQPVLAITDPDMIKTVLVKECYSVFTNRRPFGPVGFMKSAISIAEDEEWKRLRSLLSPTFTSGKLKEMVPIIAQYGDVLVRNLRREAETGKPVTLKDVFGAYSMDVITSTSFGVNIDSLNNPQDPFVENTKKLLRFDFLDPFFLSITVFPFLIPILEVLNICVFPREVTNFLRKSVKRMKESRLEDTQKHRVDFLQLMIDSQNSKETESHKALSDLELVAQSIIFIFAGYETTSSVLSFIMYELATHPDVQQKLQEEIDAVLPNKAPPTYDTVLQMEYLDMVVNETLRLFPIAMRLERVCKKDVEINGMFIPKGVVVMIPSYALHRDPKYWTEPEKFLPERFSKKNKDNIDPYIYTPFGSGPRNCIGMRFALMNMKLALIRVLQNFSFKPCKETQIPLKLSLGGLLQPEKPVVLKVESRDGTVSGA
# Fatty acid synthase [4] = target: T3, Fatty acid synthase (Homo sapiens, UniProt P49327); assay: FAS thioesterase domain inhibitors, dose response, biochemical, endpoint fluorescence intensity, uHTS hits (AID 624327); type: functional;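 note: fluorescence from hydrolysis of an O-methyl fluorescein acyl ester substrate by the enzyme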
# T3 sequence (P49327 whole entry, the tested form may be a part): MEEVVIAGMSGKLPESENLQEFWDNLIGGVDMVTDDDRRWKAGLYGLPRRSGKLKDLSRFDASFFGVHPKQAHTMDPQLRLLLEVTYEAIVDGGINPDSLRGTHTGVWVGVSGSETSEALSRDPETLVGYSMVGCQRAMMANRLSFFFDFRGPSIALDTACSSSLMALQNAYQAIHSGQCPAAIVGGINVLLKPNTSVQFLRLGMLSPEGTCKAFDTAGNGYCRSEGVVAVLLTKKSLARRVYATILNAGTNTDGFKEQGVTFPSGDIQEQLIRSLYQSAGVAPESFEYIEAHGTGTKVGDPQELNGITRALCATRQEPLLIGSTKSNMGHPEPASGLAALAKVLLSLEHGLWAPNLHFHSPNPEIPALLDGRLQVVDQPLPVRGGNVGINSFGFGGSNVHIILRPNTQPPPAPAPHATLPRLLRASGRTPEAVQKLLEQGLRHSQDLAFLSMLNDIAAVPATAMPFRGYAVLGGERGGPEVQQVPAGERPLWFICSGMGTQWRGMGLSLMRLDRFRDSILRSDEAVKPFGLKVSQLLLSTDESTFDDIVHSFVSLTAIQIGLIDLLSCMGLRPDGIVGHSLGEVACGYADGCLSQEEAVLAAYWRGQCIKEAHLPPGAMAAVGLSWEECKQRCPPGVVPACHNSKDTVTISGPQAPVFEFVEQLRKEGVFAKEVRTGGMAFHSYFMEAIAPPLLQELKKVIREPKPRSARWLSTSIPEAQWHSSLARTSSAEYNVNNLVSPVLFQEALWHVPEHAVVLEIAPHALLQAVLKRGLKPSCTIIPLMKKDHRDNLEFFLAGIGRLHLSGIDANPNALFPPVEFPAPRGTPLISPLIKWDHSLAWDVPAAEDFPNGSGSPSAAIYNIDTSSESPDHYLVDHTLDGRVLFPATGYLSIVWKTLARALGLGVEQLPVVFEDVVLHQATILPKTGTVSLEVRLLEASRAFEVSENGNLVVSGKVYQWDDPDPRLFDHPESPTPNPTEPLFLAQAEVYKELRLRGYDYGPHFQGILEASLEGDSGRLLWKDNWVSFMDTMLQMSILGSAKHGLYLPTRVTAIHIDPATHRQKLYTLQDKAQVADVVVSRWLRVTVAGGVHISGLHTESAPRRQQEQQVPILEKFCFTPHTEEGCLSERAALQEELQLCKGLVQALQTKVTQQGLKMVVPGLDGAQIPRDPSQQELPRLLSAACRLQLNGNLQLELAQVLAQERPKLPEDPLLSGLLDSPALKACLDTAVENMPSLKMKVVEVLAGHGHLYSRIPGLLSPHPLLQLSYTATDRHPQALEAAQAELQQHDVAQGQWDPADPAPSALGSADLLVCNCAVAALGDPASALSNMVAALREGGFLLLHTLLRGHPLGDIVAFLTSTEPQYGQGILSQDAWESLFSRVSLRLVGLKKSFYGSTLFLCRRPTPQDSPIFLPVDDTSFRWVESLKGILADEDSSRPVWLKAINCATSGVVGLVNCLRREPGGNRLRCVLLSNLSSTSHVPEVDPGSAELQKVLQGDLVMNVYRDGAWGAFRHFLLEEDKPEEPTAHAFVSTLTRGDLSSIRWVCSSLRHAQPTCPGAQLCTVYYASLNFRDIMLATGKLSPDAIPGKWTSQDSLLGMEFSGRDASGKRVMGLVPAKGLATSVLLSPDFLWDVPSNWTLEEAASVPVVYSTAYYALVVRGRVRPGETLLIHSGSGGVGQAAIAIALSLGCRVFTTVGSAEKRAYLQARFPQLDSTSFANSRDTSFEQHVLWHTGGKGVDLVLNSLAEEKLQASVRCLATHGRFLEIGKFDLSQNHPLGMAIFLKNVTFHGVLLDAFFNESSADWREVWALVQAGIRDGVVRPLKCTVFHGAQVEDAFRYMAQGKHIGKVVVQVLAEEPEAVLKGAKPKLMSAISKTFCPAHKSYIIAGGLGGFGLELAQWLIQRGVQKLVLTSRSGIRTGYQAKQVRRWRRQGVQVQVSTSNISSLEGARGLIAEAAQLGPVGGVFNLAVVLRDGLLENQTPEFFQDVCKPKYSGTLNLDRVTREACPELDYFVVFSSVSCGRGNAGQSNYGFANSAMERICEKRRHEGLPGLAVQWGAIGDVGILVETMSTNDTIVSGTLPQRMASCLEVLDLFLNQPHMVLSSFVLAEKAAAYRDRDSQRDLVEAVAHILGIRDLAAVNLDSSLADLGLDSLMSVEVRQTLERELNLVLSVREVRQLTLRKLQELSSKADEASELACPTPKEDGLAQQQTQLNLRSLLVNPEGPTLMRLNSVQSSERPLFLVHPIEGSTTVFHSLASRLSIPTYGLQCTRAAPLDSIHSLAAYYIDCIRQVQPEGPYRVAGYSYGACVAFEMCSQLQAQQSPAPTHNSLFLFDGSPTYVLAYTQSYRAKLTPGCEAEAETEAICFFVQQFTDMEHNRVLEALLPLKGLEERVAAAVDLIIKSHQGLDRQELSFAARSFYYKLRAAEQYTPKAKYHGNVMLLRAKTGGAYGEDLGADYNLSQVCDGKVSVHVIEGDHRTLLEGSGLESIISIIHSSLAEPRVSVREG
# Fatty acid synthase [5] = target: T3, Fatty acid synthase; assay: FAS thioesterase domain inhibitors, dose response, biochemical, kinetic fluorescence intensity (AID 624326); type: functional;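 note: rate of fluorescence rise from hydrolysis of a fluorogenic O-methyl fluorescein ester substrate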
# Vero = assay: cells; type: functional; settings: Chlorocebus sabaeus
# [6] = target: T4, Carboxy-terminal domain RNA polymerase II polypeptide A small phosphatase 1 (Homo sapiens, UniProt Q9GZU7); assay: inhibitors of CTDSP1, concentration-response testing, biochemical assay, absorbance-based, actives from ultra-high-throughput screening (AID 540297); type: functional
# T4 sequence (Q9GZU7 whole entry): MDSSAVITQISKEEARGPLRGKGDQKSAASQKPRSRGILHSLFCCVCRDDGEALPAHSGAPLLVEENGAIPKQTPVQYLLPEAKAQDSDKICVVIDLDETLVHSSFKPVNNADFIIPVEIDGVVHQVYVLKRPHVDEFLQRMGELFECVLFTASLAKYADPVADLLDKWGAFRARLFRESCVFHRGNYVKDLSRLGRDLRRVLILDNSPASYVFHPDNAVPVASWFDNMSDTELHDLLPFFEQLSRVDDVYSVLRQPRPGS
# [7] = target: Induced myeloid leukemia cell differentiation protein Mcl-1 (Homo sapiens, UniProt Q07820); type: functional
# Induced myeloid leukemia cell differentiation protein Mcl-1, sequence (Q07820 whole entry): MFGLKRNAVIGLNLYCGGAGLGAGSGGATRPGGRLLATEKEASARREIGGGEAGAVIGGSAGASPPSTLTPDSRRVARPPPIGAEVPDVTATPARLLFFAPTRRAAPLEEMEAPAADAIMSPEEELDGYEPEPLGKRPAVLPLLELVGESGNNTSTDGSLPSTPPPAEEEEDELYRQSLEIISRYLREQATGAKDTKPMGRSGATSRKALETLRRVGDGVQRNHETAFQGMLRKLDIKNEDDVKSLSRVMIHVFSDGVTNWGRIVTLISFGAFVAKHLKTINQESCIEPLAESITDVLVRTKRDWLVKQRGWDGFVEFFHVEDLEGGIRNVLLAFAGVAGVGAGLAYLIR
# [8] = target: T5, Short transient receptor potential channel 4 (Mus musculus, UniProt Q9QUQ5); assay: mouse TRPC4 channel activators, dose response, cell-based, HEK293 TRPC4/mu-opioid, Fluo-4 calcium (AID 434937); type: functional
# T5 sequence (Q9QUQ5 whole entry): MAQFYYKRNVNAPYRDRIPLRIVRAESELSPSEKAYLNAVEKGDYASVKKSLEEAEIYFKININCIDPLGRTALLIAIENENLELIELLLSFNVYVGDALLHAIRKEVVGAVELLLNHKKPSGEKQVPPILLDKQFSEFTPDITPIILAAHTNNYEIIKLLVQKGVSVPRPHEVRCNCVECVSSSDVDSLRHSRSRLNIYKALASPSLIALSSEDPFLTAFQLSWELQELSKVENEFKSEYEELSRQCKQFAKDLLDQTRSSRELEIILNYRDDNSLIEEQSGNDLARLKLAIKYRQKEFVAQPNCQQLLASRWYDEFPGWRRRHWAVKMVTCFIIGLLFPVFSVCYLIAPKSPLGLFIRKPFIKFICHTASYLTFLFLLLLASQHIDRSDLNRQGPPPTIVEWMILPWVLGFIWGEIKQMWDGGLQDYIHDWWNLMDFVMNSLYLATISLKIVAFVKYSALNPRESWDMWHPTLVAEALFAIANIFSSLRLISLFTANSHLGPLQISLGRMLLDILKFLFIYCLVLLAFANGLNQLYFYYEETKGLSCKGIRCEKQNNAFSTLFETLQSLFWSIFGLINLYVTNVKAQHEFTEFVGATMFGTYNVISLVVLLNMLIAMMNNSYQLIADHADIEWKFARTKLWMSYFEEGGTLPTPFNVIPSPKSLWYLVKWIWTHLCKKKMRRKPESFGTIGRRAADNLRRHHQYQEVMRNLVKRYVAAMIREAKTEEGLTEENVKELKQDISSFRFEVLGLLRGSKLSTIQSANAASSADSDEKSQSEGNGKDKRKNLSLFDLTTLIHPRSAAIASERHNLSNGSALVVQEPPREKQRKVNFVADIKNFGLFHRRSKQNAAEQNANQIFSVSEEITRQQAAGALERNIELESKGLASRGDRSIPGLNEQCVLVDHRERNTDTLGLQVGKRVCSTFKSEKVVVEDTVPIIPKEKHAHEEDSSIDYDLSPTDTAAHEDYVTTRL
# [9] = growth suppression of PTEN-null colon cells, dose response, cell-based, HCT116 PTEN knockout (AID 1047); type: functional;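 note: HCT116 colon tumor cells with PTEN knocked out; cells exposed to compound for 60 hours before readout; potency for loss of cell viability measured by luminescence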
# [10] = growth suppression of beta-catenin-knockout colon cells, dose response, cell-based, HCT116, human colon tumor (AID 1045); type: functional;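 note: HCT116 colon tumor cells with beta catenin knocked out; cells exposed to compound for 60 hours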
# BJ [11] = assay: cytotoxicity toward BJ-TERT-LT-ST fibroblasts, dose response, cell-based, RAS-independent, luminescence (AID 1935); type: functional; settings: Homo sapiens;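 note: BJ fibroblasts immortalized with TERT plus LT and ST oncogenes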
# BJ [12] = assay: cytotoxicity toward BJ-TERT fibroblasts, dose response, cell-based, RAS-independent, luminescence (AID 1933); type: functional; settings: Homo sapiens
# BJ [13] = assay: cells; type: functional, cell-based; settings: Homo sapiens
# [14] = cytotoxicity toward DRD oncogenic fibroblasts, dose response, cell-based, non-viral oncogenic, luminescence (AID 1934); type: functional; settings: Homo sapiens
# Cytochrome P450 2C19 = Cytochrome P450 2C19 (Homo sapiens, UniProt P33261); assay: Cytochrome panel assay with activity outcomes. Panel member name: p450-cyp2c19 Compounds with AC50 equal or less than 10 uM are considered active; type: functional; settings: read-out: AC50
# Cytochrome P450 2C19, sequence (P33261 whole entry): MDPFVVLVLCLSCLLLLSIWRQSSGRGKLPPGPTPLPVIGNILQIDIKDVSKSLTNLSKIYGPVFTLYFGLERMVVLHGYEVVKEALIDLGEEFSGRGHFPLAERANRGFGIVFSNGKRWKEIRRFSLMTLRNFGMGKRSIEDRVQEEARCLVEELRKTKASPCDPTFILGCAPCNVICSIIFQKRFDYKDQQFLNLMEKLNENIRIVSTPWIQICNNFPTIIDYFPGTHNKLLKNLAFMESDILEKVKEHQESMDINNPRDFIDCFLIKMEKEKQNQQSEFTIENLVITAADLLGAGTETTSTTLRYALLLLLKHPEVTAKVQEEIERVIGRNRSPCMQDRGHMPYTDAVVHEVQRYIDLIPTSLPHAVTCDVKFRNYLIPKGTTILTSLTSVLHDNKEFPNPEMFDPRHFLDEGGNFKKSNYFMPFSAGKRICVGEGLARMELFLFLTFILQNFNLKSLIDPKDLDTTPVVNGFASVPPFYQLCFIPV
# Cytochrome P450 2C9 = Cytochrome P450 2C9 (Homo sapiens, UniProt P11712)
# Cytochrome P450 2C9, sequence (P11712 whole entry): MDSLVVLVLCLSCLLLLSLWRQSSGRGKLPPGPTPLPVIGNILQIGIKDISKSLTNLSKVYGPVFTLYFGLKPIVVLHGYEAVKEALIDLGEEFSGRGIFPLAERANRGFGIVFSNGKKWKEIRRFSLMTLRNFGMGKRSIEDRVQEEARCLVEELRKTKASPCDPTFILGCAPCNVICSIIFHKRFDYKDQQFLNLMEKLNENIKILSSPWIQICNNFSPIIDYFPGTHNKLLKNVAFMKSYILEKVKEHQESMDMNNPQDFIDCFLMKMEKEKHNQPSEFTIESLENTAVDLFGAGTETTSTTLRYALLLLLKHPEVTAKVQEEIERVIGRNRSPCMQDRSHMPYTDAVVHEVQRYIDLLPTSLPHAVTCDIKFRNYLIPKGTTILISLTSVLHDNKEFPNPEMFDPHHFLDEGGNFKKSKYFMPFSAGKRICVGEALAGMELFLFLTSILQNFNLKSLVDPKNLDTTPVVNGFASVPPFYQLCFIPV
smiles,measurement,setting,value
N#Cc1c(-c2c(Cl)cccc2Cl)noc1/C=C/Nc1ccc(C(=O)O)cc1,EC50,[1],1.95 µM (active)
same,IC50,cells,32.6 µM (active)
same,EC50,Streptococcus,17.5 µM (active)
same,EC50,Streptokinase A,> 150 µM (not active)
COc1ccc(C)cc1NC(=O)c1cc(S(=O)(=O)N2CCCCC2)ccc1N1CCOCC1,IC50,[2],> 20 µM (inactive)
c1ccc(-c2nn3c(Cn4nnc5ccccc54)nnc3s2)cc1,IC50,cells,> 25 µM (active)
COc1ccc2nc(NC(=O)c3ccccc3[N+](=O)[O-])sc2c1,CC50,[3],45.6 µM (active)
same,IC50,cells,9.33 µM (active)
Clc1ccc(C2[C@H]3CN(Cc4ccc(-c5ccccc5)cc4)[C@H](c4ccccc4)C34CC2(c2cccnc2)C4)cn1 (stereo not given in full),AC50,Cytochrome P450 3A4,15.8 µM (inconclusive)
CC(C)c1ccc(CCNC(=O)c2ccc([N+](=O)[O-])cc2)cc1,IC50,Fatty acid synthase [4],1.51 µM (active)
same,IC50,Fatty acid synthase [5],1.71 µM (active)
Cc1cc(O)c(C(=O)/C=C/c2cccc([N+](=O)[O-])c2)c(=O)o1,CC50,Vero,22.6 µM (active)
O=C(CCCc1ccccc1)Nc1cccc([N+](=O)[O-])c1,IC50,Fatty acid synthase [4],7.58 µM (active)
same,IC50,Fatty acid synthase [5],3.7 µM (active)
COCCCNC(=O)/C(C#N)=C/c1ccc(OCC(=O)O)c(OC)c1,IC50,[6],2.19 µM (active)
same,IC50,[7],4.75 µM (active)
CCCn1c(-c2ccc(F)cc2)nc2c(N3CCN(C)CC3)nc(C)nc21,AC50,Cytochrome P450 3A4,12.6 µM (inconclusive)
N#Cc1c(-c2ccccc2)c(-c2ccccc2)nn(CC(=O)NNC(=O)Nc2ccc(Cl)cc2)c1=O,IC50,Fatty acid synthase [4],3.55 µM (active)
same,IC50,Fatty acid synthase [5],3.01 µM (active)
COc1ccc(C(=O)C2CCCN(C3CSCCSC3)C2)cc1OC (stereo not given),EC50,[8],0.944 µM (active)
CN(C)c1ccc(/C=C/C(=O)c2ccccc2)cc1[N+](=O)[O-],EC50,[9],8.26 µM (active)
same,EC50,[10],7.13 µM (active)
CC(C)c1n[nH]c2c1C(C1C=CCCC1)C(C#N)=C(N)O2 (stereo not given),CC50,Vero,21.9 µM (active)
NCCCCc1ccc2ccc3cccc4ccc1c2c34,CC50,Vero,22.6 µM (active)
same,IC50,[2],> 20 µM (inactive)
Nc1c(C(=O)NCc2ccco2)c2nc3ccccc3nc2n1Cc1ccc(F)cc1,EC50,[9],168 µM (active)
same,EC50,[10],348 µM (active)
CN1C[C@@H]2C(c3ccccc3)C3(c4ccc(C#N)cc4)CC2(C3)[C@H]1c1ccccc1 (stereo not given in full),AC50,Cytochrome P450 3A4,25.1 µM (inconclusive)
NC(=S)N=Nc1c(O)[nH]c2ccccc12,IC50,[2],> 20 µM (inactive)
CCO/C(O)=C1/C(C)=NC(SC)=C(C#N)C1CC(C)C (stereo not given),EC50,BJ [11],6.28 µM (inconclusive)
same,EC50,BJ [12],7.78 µM (active)
same,EC50,BJ [13],35 µM (inconclusive)
same,EC50,[14],2.97 µM (active)
COc1ccc(C(C(=O)NC2CCCCC2)N(C(=O)CCl)c2ccccc2Cl)cc1 (stereo not given),EC50,BJ [11],> 150 µM (not active)
same,EC50,BJ [12],0.566 µM (inconclusive)
same,EC50,BJ [13],> 150 µM (not active)
same,EC50,[14],4.62 µM (inconclusive)
O=[N+]([O-])c1ccc(N2CCNCC2)cc1NC1CC1,AC50,Cytochrome P450 2C19,25.1 µM (inconclusive)
same,EC50,[8],0.168 µM (active)
same,AC50,Cytochrome P450 2C9,15.8 µM (inconclusive)

# Reference: ChEMBL document CHEMBL1201862, “PubChem BioAssay data set” (2004)
